According to patent publication US7018624B2, “Delivery of poly(ethylene glycol)-modified molecules from degradable hydrogels” (Debio Recherche Pharmaceutique S.A., priority 1996, dated 2006):

Assay: Hydrolysis kinetics of the ester linkages of mPEG-O-(CH2)n-COO-mPEG in buffer, followed by HPLC-GPC
Assay type: physicochemical
Method: To precisely measure the hydrolysis kinetics of the ester linkages, water-soluble, non-crosslinked mPEG-O—(CH2)n—COO-MPEG was synthesized as in Example 2. Hydrolysis was carried out in buffer solutions (0.1 M) at different pHs and temperatures, and followed by HPLC-GPC (Ultrahydrogel® 250, Waters).

mPEG-O-(CH2)n-COO-mPEG [CM ester linkage]
Hydrolysis half lives of the ester (pH 5.5): >150 days
Hydrolysis half lives of the ester (pH 8.1): 5 days
